# Columns and labels:
# [1] = target: T1, Acyl-CoA : cholesterol acyltransferase (ACAT) (Rattus norvegicus, UniProt Q7TQM4); test: Acyl-CoA : cholesterol acyltransferase (ACAT) inhibitory activity: production of labeled cholesterol ester from [1-^14 C] oleoyl-CoA and endogenous cholesterol; assay type: biochemical; conditions: read-out: ACAT Inhibition Rate; for inhibition at 1 µM: 10^-6 M test compound; for inhibition at 0.01 µM: 10^-8 M test compound
# T1 construct: from the mucosal microsome fraction of the small intestine of male, 6-week old Sprague-Dawley rats; from tissue; host or cells: mucosal microsome fraction of the small intestine of male 6-week old Sprague-Dawley rats, fasted for 20 hours
# T1 sequence (Q7TQM4 1-524): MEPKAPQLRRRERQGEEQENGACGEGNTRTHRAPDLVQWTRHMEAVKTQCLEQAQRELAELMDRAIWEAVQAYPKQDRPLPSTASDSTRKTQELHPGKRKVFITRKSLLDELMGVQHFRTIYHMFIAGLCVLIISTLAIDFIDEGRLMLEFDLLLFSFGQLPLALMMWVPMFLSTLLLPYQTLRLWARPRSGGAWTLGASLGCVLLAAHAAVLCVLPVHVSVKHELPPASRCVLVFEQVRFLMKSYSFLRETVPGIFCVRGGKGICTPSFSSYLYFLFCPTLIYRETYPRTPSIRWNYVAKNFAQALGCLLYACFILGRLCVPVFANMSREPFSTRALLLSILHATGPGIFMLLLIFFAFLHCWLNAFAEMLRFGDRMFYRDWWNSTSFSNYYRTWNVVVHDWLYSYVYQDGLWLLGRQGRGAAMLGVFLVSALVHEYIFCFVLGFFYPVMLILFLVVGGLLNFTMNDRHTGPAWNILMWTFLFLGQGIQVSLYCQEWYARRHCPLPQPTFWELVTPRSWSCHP
# Description: 1. Acyl-CoA : cholesterol acyltransferase (ACAT) inhibitory activity.
# The enzyme ACAT was prepared by the method of Heider et al. described in Journal of Lipid Research, Vol. 24, page 1127 (1982), from the mucosal microsome fraction of the small intestine of male, 6-week old Sprague-Dawley rats which had been fasted for 20 hours.
# ACAT activity was calculated by the method of Helgerud et al. described in Journal of Lipid Research, Vol. 22, page 271 (1981), namely, by measuring the amount of the labeled cholesterol ester produced from [1-^14 C] oleoyl-CoA and endogenous cholesterol.
# Inhibition rates (%) of the production of the labeled cholesterol ester wherein 10^-6 M-10^-8 M of test compounds were added are shown as an index of ACAT inhibitory activity in Table 1.
# plasma cholesterol = test: Plasma cholesterol lowering activity in cholesterol fed rat; assay type: in vivo, rat (7-week old, male Sarague Dawley rats); conditions: diet containing 0.0005% of test compound for 4 days; mean ± standard deviation; control 240 ± 85; *p < 0.05 (t test vs control group); Dose (mg/kg/day): 23 0.40 ± 0.03, 30 0.45 ± 0.02, 32 0.43 ± 0.04
# Description: 2. Plasma cholesterol lowering activity in cholesterol fed rat.
# 1% Cholesterol diet (containing 0.5% of cholic acid and 5% of olive oil) was fed to 7-week old, male Sarague Dawley rats for 3 days. The rats were grouped by the plasma cholesterol level, and fed by the same diet containing 0.0005% of a test compound for 4 days. Blood was collected from rats during 8:30-10:00 am at the fed state, and the plasma cholesterol level was measured enzymatically. The amount of a test compound consumed by rats was calculated on the basis of the amount of the diet consumed by the rats.
SMILES,inhibition at 1 µM [1] [%],also measured
"O=C(Nc1ccc(F)cc1F)Nc1cnc2ccc(Cl)cc2c1-c1ccccc1Cl [Example 23, 6-Chloro-4-(2-chlorophenyl)-3-[3-(2,4-difluorophenyl)ureido]quinoline]",98,inhibition at 0.1 µM ([1]; 10^-7 M test compound): 94.1%; inhibition at 0.01 µM [1]: 34.3%; Plasma Cholesterol (plasma cholesterol): 126 ± 33 mg/dL
"Cc1ccc2ncc(NC(=O)Nc3ccc(F)cc3F)c(-c3ccccc3Cl)c2c1 [Example 30, 4-(2-Chlorophenyl)-3-[3-(2,4-difluorophenyl)ureido]-6-methylquinoline]",98.5,Plasma Cholesterol (plasma cholesterol): 143 ± 21 mg/dL
"Cc1cc(C)c2ncc(NC(=O)Nc3ccc(F)cc3F)c(-c3ccccc3Cl)c2c1 [Example 32, 4-(2-Chlorophenyl)-3-[3-(2,4-difluorophenyl)ureido]-6,8-dimethylquinoline]",98.9,inhibition at 0.01 µM [1]: 52.1%; Plasma Cholesterol (plasma cholesterol): 119 ± 46 mg/dL
"COc1cc(NC(=O)Nc2cnc3c(C)cc(C)cc3c2-c2ccccc2Cl)cc(OC)c1OC [Example 64, 4-(2-chlorophenyl)-6,8-dimethyl-3-[3-(3,4,5-trimethoxyphenyl)ureido]-quinoline]",69.7,–
"Cc1cc(C)c2ncc(N(Cc3cc(C(C)(C)C)c(O)c(C(C)(C)C)c3)C(=O)Nc3ccc(F)cc3F)c(-c3ccccc3Cl)c2c1 [Example 67, 3-[1-(3,5-Di-tert-butyl-4-hydroxybenzyl)-3-(2,4-difluorophenyl)ureido]-4-(2-chlorophenyl)-6,8-dimethylquinoline]",90.1,–
"COc1ccc(-c2c(NC(=O)Nc3ccc(F)cc3F)cnc3ccc(Cl)cc23)c(OC)c1OC [Example 68, 6-Chloro-3-[3-(2,4-difluorophenyl)ureido]-4-(2,3,4-trimethoxyphenyl)quinoline]",98,–
"COc1ccc(-c2c(NC(=O)Nc3ccc(F)cc3F)cnc3ccc(Cl)cc23)c(O)c1OC [Example 69, 6-Chloro-3-[3-(2,4-difluorophenyl)ureido]-4-(2-hydroxy-3,4-dimethoxyphenyl)quinoline]",78.2,–
"Cc1cc(C)c2ncc(NC(=O)Nc3c(C)cccc3C)c(-c3ccccc3Cl)c2c1 [Example 70, 4-(2-Chlorophenyl)-6,8-dimethyl-3-[3-(2,6-dimethyl-phenyl)ureido]quinoline]",97.9,–
"Cc1cc(C)c2ncc(NC(=O)Nc3c(C(C)C)cccc3C(C)C)c(-c3ccccc3Cl)c2c1 [Example 71, 4-(2-Chlorophenyl)-3-[3-(2,6-diisopropylphenyl)ureido]-6,8-dimethylquinoline]",98,–
"Cc1cc(C)c2ncc(NC(=O)Nc3ccc([N+](=O)[O-])cc3)c(-c3ccccc3Cl)c2c1 [Example 72, 4-(2-Chlorophenyl)-3-[3-(4-nitrophenyl)ureido]-6,8-dimethylquinoline]",97.3,–
"Cc1cc2ncc(NC(=O)Nc3ccc(F)cc3F)c(-c3ccccc3Cl)c2cc1C [Example 73, 4-(2-Chlorophenyl)-3-[3-(2,4-difluorophenyl)ureido]-6,7-dimethylquinoline]",99.6,–
"Cc1cc2c(-c3ccccc3Cl)c(NC(=O)Nc3ccc(F)cc3F)cnc2c(C)c1C [Example 74, 4-(2-Chlorophenyl)-3-[3-(2,4-difluorophenyl)ureido]-6,7,8-trimethylquinoline]",99.3,–
"O=C(Nc1ccc(F)cc1F)Nc1cnc2ccc(Cl)cc2c1-c1ccc(O)c(O)c1 [Example 75, 6-chloro-3-[3-(2,4-difluorophenylureido]-4-(3,4-dihydroxyphenyl)quinoline.1/2hydrate]",61.2,–
"CC(=O)Oc1c(C)cc(NC(=O)Nc2cnc3c(C)cc(C)cc3c2-c2ccccc2Cl)cc1C [Example 77, 3-[3-(4-Acetoxy-3,5-dimethylphenyl)ureido]-4-(2-chlorophenyl)-6,8-dimethylquinoline]",96.2,–
"CC(=O)Oc1c(C)cc(NC(=O)Nc2cnc3c(C)cc(C)cc3c2-c2ccccc2Cl)c(C)c1C [Example 78, 3-[3-(4-Acetoxy-2,3,5-trimethylphenyl)ureido]-4-(2-chlorophenyl)-6,8-dimethylquinoline]",98.2,–
"Cc1cc(C)c2ncc(NC(=O)Nc3cc(C(C)C)c(O)c(C(C)C)c3)c(-c3ccccc3Cl)c2c1 [Example 79, 4-(2-chlorophenyl)-3-[3-(4-hydroxy-3,5-diisopropylphenyl)ureido]-6,8-dimethylquinoline]",79.9,–
"Cc1cc(C)c2ncc(NC(=O)Nc3cc(C)c(O)c(C)c3)c(-c3ccccc3Cl)c2c1 [Example 80, 4-(2-Chlorophenyl)-3-[3-(4-hydroxy-3,5-dimethylphenyl)ureido]-6,8-dimethylquinoline]",95.9,–
"Cc1cc(C)c2ncc(NC(=O)Nc3cc(C)c(O)c(C)c3C)c(-c3ccccc3Cl)c2c1 [Example 81, 4-(2-Chlorophenyl)-3-[3-(4-hydroxy-2,3,5-trimethylphenyl)ureido]-6,8-dimethylquinoline]",97.9,–
"Cc1cccc2ncc(NC(=O)Nc3ccc(F)cc3F)c(-c3ccccc3Cl)c12 [Example 83, 4-(2-Chlorophenyl)-3-[3-(2,4-difluorophenyl)ureido]-5-methylquinoline]",87.3,–

# — patent US5254565A, “Quinoline derivatives, their production and use” (priority 1988, dated 1993)
